Measurements published in patent US9120795B2, “Crystalline form of a β-lactamase inhibitor” (Cubist Pharmaceuticals, Inc., priority 2013, dated 2015).

Legend:
Eco.2711 (KPC, clinical) = assay: Standard BLI potentiation MIC assay; type: cell-based, Eschericia coli; conditions: read-out: MIC of β-lactam with BLI
Description: (§1) The experimental protocol was performed according to Clinical and Laboratory Standards Institute (CLSI) guidelines with modifications as described below (CLSI guidelines can be derived from the CLSI document M07-A9 published in January 2012: “Methods for Dilution Antimicrobial Susceptibility Tests for Bacteria That Grow Aerobically; Approved Standard-Ninth Edition”).
(§2) To prepare for MIC testing, frozen glycerol stocks of clinical isolates (Klebsiella pneumoniae, Eschericia coli, Enterobacter spp, Citrobacter spp, or Pseudomonas aeruginosa) were used to streak for isolated colonies on rich, non-selective, tryptic soy agar containing 5% sheep's blood (TSAB). Frozen glycerol stocks of laboratory engineered, isogenic E. coli strains, which contain cloned β-lactamase expressing plasmids were used to streak for isolated colonies on rich, selective LB agar supplemented with 25 μg/mL tetracycline to maintain the plasmid. All strains were incubated at 37° C. for 18-24 hrs.
(§3) On the day of testing, primary cultures were started by scraping off 5-10 colonies from the TSAB plates containing clinical strains or the tetracycline supplemented LB plates containing engineered strains. The clinical strain material was suspended in ˜5 mL of cation adjusted Mueller Hinton Broth (CAMHB) in 14 mL culture tubes. The engineered strain material was suspended in CAMHB (supplemented with 25 μg/mL tetracycline) in 14 mL culture tubes. All strains were incubated at 37° C. with aeration (200 rpm) for ˜2 hrs until the optical density at 600 nm (OD600) was ≧0.1.
(§4) The two compound components of the assay were each diluted in CAMHB and added to the 96-well broth microdilution assay plates. 50 μL of the β-lactam was added to each well of the assay plate in 2-fold dilutions with final concentrations ranging from 128 to 0.13 μg/mL. 25 μL of the BLI compound was added to all wells in the broth microdilution plates at a final concentration of 4 μg/mL. Inoculum cultures were prepared by standardizing the primary cultures to OD600=0.1 and then adding 20 μL of the adjusted primary culture per 1 mL CAMHB for clinical strains or CAMHB (supplemented with tetracycline at 100 μg/mL) for engineered strains, so that the final inoculum density was ˜10^5 colony forming units per milliliter. Diluted inoculum cultures were used to inoculate 25 μL per well in 96-well broth microdilution assay plates. The final volume of each well was 100 μL and contained a β-lactam at different concentrations, a BLlcompound at 4 μg/mL concentration, the bacterial culture at an OD600 of approximately 0.001 and when necessary tetracycline at 25 μg/mL.
(§5) Plates were incubated for 18-20 hours at 37° C. with aeration (200 rpm). Following incubation, growth was confirmed visually placing plates over a viewing apparatus (stand with a mirror underneath) and then OD600 was measured using a SpectraMax 340PC384 plate reader (Molecular Devices, Sunnyvale, Calif.). Growth was defined as turbidity that could be detected with the naked eye or achieving minimum OD600 of 0.1. MIC values were defined as the lowest concentration producing no visible turbidity.

[1] = test system: Eco.2781 (KPC-2, TEM+, clinical); assay: Standard BLI potentiation MIC assay; type: cell-based, Eschericia coli; conditions: read-out: MIC of β-lactam with BLI
Description: as §1, §2, §3, §4, §5

[2] = test system: Eco.2806 (KPC-2, isogenic); assay: Standard BLI potentiation MIC assay; type: cell-based, Eschericia coli; conditions: read-out: MIC of β-lactam with BLI
Description: as §1, §2, §3, §4, §5

[3] = test system: Eco.2843 (DHA-1, isogenic); assay: Standard BLI potentiation MIC assay; type: cell-based, Eschericia coli; conditions: read-out: MIC of β-lactam with BLI
Description: as §1, §2, §3, §4, §5

[4] = test system: Eco.2845 (OXA-15, isogenic); assay: Standard BLI potentiation MIC assay; type: cell-based, Eschericia coli; conditions: read-out: MIC of β-lactam with BLI
Description: as §1, §2, §3, §4, §5

[5] = test system: Eco.2902 (Aba-ADC-33, isogenic); assay: Standard BLI potentiation MIC assay; type: cell-based, Eschericia coli; conditions: read-out: MIC of β-lactam with BLI
Description: as §1, §2, §3, §4, §5

[6] = test system: Eco isogenic, β-Lactamase none; assay: Synergy MIC (sMIC) assay; type: cell-based, E. coli; conditions: β-Lactam none
Description: The synergy MIC (sMIC) assay determines the concentration of the BLI required to potentiate the activity of a fixed concentration of a β-lactam antibiotic against β-lactamase producing bacterial strains. The experimental protocol was performed according to Clinical and Laboratory Standards Institute (CLSI) guidelines with modifications as described below (CLSI guidelines can be derived from the CLSI document M07-A9 published in January 2012: “Methods for Dilution Antimicrobial Susceptibility Tests for Bacteria That Grow Aerobically; Approved Standard-Ninth Edition”). […]
as §5, with “sMIC” for “MIC”, “turbidity. […]” for “turbidity.”

O=C1N2C[C@@H](CC[C@H]2c2nnco2)N1OS(=O)(=O)[O-].[Na+] [Hydrate 1, sodium (2S,5R)-2-(1,3,4-oxadiazol-2-yl)-7-oxo-1,6-diazabicyclo[3.2.1]octan-6-yl sulfate]
MIC (Eco.2711 (KPC, clinical)): 0.25 to 0.5 µg/mL
MIC [1]: 0.25 to 0.5 µg/mL
MIC [2]: 0.25 to 0.5 µg/mL
MIC [3]: 0.25 to 0.5 µg/mL
MIC [4]: 1 to 2 µg/mL
MIC [5]: 1 to 2 µg/mL
sMIC [6]: F (F = ≧128 μg/mL)
